Laboratory results: patent US10189841B2, “Purinones as ubiquitin-specific protease 1 inhibitors” (Forma Therapeutics, Inc., priority 2015, dated 2019)
pIC50: −log10 of the molar value.

Target: USP1 (construct USP1 (I-785, GG670, 671AA)/UAF1 (I-677)-Flag) (Homo sapiens (Human), UniProt O94782, G670A/G671A)
Assay: Ubiquitin-Rhodamine 110 assay for USP1 activity
Format: biochemical
Details: USP1/UAF1 25 pM, Ub-Rh110 25 nM, 30 min preincubation
Description: Example 53: Ubitquin-Rhodamine 110 Assay for USP1 Activity
The HTS assay was performed in a final volume of 20 μL in assay buffer containing 20 mM Tris-HCl (pH 8.0, (1M Tris-HCl, pH 8.0 solution; Corning 46-031-CM)), 2 mM CaCl2 (1M Calcium Chloride solution; Sigma #21114) 1 mM GSH (L-Glutathione reduced; Sigma #G4251), 0.01% Prionex ([…] filtered, Sigma #G-0411), and 0.01% Triton X-100. Stock compound solutions were stored at −20° C. as 10 mM in DMSO. Up to 1 month prior to the assay, 2 mM test compounds were pre-dispensed into assay plates (Black, low volume; Corning #3820) and frozen at −20° C. Prestamped assay plates were allowed to come to room temperature on the day of the assay. For the screen, 100 nL of 2 mM was pre-dispensed for a final screening concentration of […] (DMSO(fc)=0.5%). The final concentration of the enzyme (USP1, construct USP1 (I-785, GG670, 671AA)/UAF1 (I-677)-Flag; Viva) in the assay was 100 pM. Final substrate (Ub-Rh110; Ubiquitin-Rhodamine 110, R&D Systems #U-555) concentration was 25 nM with [Ub-Rh110]<<Km. […] Plates were incubated stacked for 45 minutes at room temperature before fluorescence was read on the Envision (Excitation at 485 nm and Emission at 535 nm; Perkin Elmer) or on the PheraSTAR (Excitation at 485 nm and Emission at 535 nm; BMG Labtech)
Nanoliter quantities of either an 8-point or 10-point, 3-fold serial dilution in DMSO was pre-dispensed into assay plates (Perkin Elmer, ProxiPlate-384 F Plus, #6008269) for a final test concentration range of either 25 μM to 11 nM or 25 μM to 1.3 nM, respectively. The final concentration of the enzyme (USP1, construct USP1 (I-785, GG670, 671AA)/UAF1 (I-677)-Flag; Viva) in the assay was 25 pM. Final substrate (Ub-Rh110; Ubiquitin-Rhodamine 110, R&D Systems #U-555) concentration was 25 nM with [Ub-Rh110]<<Km. […] Plates were incubated stacked for 20 minutes at room temperature before 5 μL of stop solution (final concentration of 10 mM citric acid in assay buffer (Sigma, #251275-500G)). Fluorescence was read on the Envision (Excitation at 485 nm and Emission at 535 nm; Perkin Elmer) or on the PheraSTAR (Excitation at 485 nm and Emission at 535 nm; BMG Labtech).
For both assay formats data were reported as percent inhibition compared with control wells based on the following equation: % inh=[1−((FLU−AveLow)/(AveHigh−AveLow))]×100 where FLU=measured Fluorescence, AveLow=average Fluorescence of no enzyme control (n=16), and AveHigh=average Fluorescence of DMSO control (n=16). IC50 values were determined by curve fitting of the standard 4 parameter logistic fitting algorithm included in the Activity Base software package: IDBS XE Designer Model205. Data is fitted using the Levenburg Marquardt algorithm.

Sequence of USP1 (construct USP1 (I-785, GG670, 671AA)/UAF1 (I-677)-Flag) (O94782 whole entry G670A/G671A): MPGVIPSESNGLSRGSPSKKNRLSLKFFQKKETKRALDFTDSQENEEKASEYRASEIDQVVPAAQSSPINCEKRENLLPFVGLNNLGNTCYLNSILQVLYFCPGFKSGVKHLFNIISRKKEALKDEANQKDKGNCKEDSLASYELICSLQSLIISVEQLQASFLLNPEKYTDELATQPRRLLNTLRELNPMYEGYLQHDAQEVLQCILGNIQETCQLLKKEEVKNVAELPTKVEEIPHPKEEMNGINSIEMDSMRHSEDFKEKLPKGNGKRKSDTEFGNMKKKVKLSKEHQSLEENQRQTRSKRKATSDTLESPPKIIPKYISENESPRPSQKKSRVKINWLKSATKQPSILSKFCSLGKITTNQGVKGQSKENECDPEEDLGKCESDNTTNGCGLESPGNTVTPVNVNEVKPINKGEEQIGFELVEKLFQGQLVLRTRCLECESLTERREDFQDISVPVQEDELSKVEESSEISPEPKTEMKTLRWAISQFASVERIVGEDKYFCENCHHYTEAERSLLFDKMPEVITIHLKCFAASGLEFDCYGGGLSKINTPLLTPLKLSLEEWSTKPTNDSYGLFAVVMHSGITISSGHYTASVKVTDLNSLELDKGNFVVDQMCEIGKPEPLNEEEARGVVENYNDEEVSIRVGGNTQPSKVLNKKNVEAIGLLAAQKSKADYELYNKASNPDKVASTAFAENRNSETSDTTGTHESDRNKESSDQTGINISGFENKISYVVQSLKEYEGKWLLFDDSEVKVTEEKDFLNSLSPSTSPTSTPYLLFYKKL
Sequence of USP1 (construct USP1 (I-785, GG670, 671AA)/UAF1 (I-677)-Flag) (Q8TAF3 whole entry partner): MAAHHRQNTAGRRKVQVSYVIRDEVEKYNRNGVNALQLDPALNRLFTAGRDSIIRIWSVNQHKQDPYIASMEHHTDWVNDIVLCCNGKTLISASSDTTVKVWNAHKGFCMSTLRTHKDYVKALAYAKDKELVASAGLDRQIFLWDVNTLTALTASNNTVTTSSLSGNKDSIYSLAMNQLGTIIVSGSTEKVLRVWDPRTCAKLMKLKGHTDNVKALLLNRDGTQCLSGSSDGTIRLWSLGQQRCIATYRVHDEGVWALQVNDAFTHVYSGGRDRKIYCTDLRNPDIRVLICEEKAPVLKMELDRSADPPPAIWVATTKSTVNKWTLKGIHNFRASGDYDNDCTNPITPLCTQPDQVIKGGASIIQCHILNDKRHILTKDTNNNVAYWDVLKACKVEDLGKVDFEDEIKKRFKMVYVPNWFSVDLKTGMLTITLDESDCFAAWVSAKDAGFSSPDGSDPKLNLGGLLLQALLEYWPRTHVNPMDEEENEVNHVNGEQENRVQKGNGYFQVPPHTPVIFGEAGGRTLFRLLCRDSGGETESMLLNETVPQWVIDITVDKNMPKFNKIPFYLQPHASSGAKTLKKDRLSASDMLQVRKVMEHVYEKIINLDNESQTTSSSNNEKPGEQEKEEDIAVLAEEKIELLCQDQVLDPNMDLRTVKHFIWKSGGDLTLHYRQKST

With Cn1cc(C(F)(F)F)nc1-c1ccc(Cn2c(=O)[nH]c3cnc(-c4cccc5ccn(C)c45)nc32)cc1 [Compound I-45, 2-(1-methyl-1H-indol-7-yl)-9-(4-(1-methyl-4-(trifluoromethyl)-1H-imidazol-2-yl)benzyl)-7,9-dihydro-8H-purin-8-one] as the compound, how does the pIC50 read?
The pIC50 was greater than 7.30.

With CC(C)c1ncccc1-c1ncc2[nH]c(=O)n(Cc3ccc(-c4ccn(C)n4)cc3)c2n1 [Compound I-46, 2-(2-isopropylpyridin-3-yl)-9-(4-(1-methyl-1H-pyrazol-3-yl)benzyl)-7,9-dihydro-8H-purin-8-one] as the compound, how does the pIC50 read?
The pIC50 was 5.70 to 6.70.

How did the pIC50 turn out when Cc1cn(C)nc1-c1ccc(Cn2c(=O)[nH]c3cnc(-c4cccnc4C(C)C)nc32)cc1 [Compound I-47, 9-(4-(1,4-dimethyl-1H-pyrazol-3-yl)benzyl)-2-(2-isopropylpyridin-3-yl)-7,9-dihydro-8H-purin-8-one] was run?
Its pIC50 is 5.70 to 6.70.

How did the pIC50 turn out when Cn1cc(C(F)(F)F)nc1-c1ccc(Cn2c(=O)n(C)c3cnc(-c4cccnc4OC(F)F)nc32)cc1 [Compound I-48, 2-(2-(difluoromethoxy)pyridin-3-yl)-7-methyl-9-(4-(1-methyl-4-(trifluoromethyl)-1H-imidazol-2-yl)benzyl)-7,9-dihydro-8H-purin-8-one] was run?
Its pIC50 is greater than 7.30.

How did the pIC50 turn out when Cn1cc(C(F)(F)F)nc1-c1ccc(Cn2c(=O)n(C)c3cnc(-c4ccccc4OC(F)(F)F)nc32)cc1 [Compound I-49, 7-methyl-9-(4-(1-methyl-4-(trifluoromethyl)-1H-imidazol-2-yl)benzyl)-2-(2-(trifluoromethoxy)phenyl)-7,9-dihydro-8H-purin-8-one] was run?
The pIC50 was greater than 7.30.

How did the pIC50 turn out when Cn1cc(C(F)(F)F)nc1-c1ccc(Cn2c(=O)n(C)c3cnc(-c4cccnc4OCC(F)(F)F)nc32)cc1 [Compound I-50, 7-methyl-9-(4-(1-methyl-4-(trifluoromethyl)-1H-imidazol-2-yl)benzyl)-2-(2-(2,2,2-trifluoroethoxy)pyridin-3-yl)-7,9-dihydro-8H-purin-8-one] was run?
Its pIC50 is greater than 7.30.

CC(C)c1ncccc1-c1ncc2[nH]c(=O)n(C3(c4ccc(-c5nc(C(F)(F)F)cn5C)cc4)CC3)c2n1 [Compound I-51, 2-(2-isopropylpyridin-3-yl)-9-(1-(4-(1-methyl-4-(trifluoromethyl)-1H-imidazol-2-yl)phenyl)cyclopropyl)-7,9-dihydro-8H-purin-8-one] was tested. Which pIC50 did it give?
Its pIC50 is greater than 7.30.

With Cc1cc(Cl)nn1-c1ccc(Cn2c(=O)[nH]c3cnc(-c4cccnc4C(C)C)nc32)cc1 [Compound I-52, 9-(4-(3-chloro-5-methyl-1H-pyrazol-1-yl)benzyl)-2-(2-isopropylpyridin-3-yl)-7,9-dihydro-8H-purin-8-one] as the compound, how does the pIC50 read?
The pIC50 was greater than 7.30.

With Cc1cc(Cl)n(-c2ccc(Cn3c(=O)[nH]c4cnc(-c5cccnc5C(C)C)nc43)cc2)n1 [Compound I-53, 9-(4-(5-chloro-3-methyl-1H-pyrazol-1-yl)benzyl)-2-(2-isopropylpyridin-3-yl)-7,9-dihydro-8H-purin-8-one] as the compound, how does the pIC50 read?
Its pIC50 is greater than 7.30.

With Cc1cccn1-c1ccc(Cn2c(=O)[nH]c3cnc(-c4cccnc4C(C)C)nc32)cc1 [Compound I-54, 2-(2-isopropylpyridin-3-yl)-9-(4-(2-methyl-1H-pyrrol-1-yl)benzyl)-7,9-dihydro-8H-purin-8-one] as the compound, how does the pIC50 read?
The pIC50 was 5.70 to 6.70.

CO[C@H](C)c1ccccc1-c1ncc2[nH]c(=O)n(Cc3ccc(-c4nc(C(F)(F)F)cn4C)cc3)c2n1 [Compound I-55, (R)-2-(2-(1-methoxyethyl)phenyl)-9-(4-(1-methyl-4-(trifluoromethyl)-1H-imidazol-2-yl)benzyl)-7,9-dihydro-8H-purin-8-one] was tested. Which pIC50 did it give?
The pIC50 was greater than 7.30.

With CO[C@@H](C)c1ccccc1-c1ncc2[nH]c(=O)n(Cc3ccc(-c4nc(C(F)(F)F)cn4C)cc3)c2n1 [Compound I-56, (S)-2-(2-(1-methoxyethyl)phenyl)-9-(4-(1-methyl-4-(trifluoromethyl)-1H-imidazol-2-yl)benzyl)-7,9-dihydro-8H-purin-8-one] as the compound, how does the pIC50 read?
Its pIC50 is greater than 7.30.

With Cn1cc(C(F)(F)F)nc1-c1ccc(Cn2c(=O)[nH]c3cnc(-c4cccnc4F)nc32)cc1 [Compound I-57, 2-(2-fluoropyridin-3-yl)-9-(4-(1-methyl-4-(trifluoromethyl)-1H-imidazol-2-yl)benzyl)-7,9-dihydro-8H-purin-8-one] as the compound, how does the pIC50 read?
Its pIC50 is 5.70 to 6.70.

Cc1cc(C(F)F)nn1-c1ccc(Cn2c(=O)[nH]c3cnc(-c4cccnc4C(C)C)nc32)cc1 [Compound I-58, 9-(4-(3-(difluoromethyl)-5-methyl-1H-pyrazol-1-yl)benzyl)-2-(2-isopropylpyridin-3-yl)-7,9-dihydro-8H-purin-8-one] was tested. Which pIC50 did it give?
Its pIC50 is greater than 7.30.

CC(C)c1ncccc1-c1ncc2[nH]c(=O)n(Cc3ccc(-n4ccc(F)n4)cc3)c2n1 [Compound I-59, 9-(4-(3-fluoro-1H-pyrazol-1-yl)benzyl)-2-(2-isopropylpyridin-3-yl)-7,9-dihydro-8H-purin-8-one] was tested. Which pIC50 did it give?
Its pIC50 is 6.70 to 7.30.

How did the pIC50 turn out when COc1cc(C(F)(F)F)nn1-c1ccc(Cn2c(=O)[nH]c3cnc(-c4cccnc4C(C)C)nc32)cc1 [Compound I-60, 2-(2-isopropylpyridin-3-yl)-9-(4-(5-methoxy-3-(trifluoromethyl)-1H-pyrazol-1-yl)benzyl)-7,9-dihydro-8H-purin-8-one] was run?
Its pIC50 is greater than 7.30.

How did the pIC50 turn out when CCc1ncccc1-c1ncc2c(n1)n(Cc1ccc(-c3nc(C(F)(F)F)cn3C)cc1)c(=O)n2C [Compound I-61, 2-(2-ethylpyridin-3-yl)-7-methyl-9-(4-(1-methyl-4-(trifluoromethyl)-1H-imidazol-2-yl)benzyl)-7,9-dihydro-8H-purin-8-one] was run?
Its pIC50 is 6.70 to 7.30.

How did the pIC50 turn out when Cc1ncccc1-c1ncc2c(n1)n(Cc1ccc(-c3nc(C(F)(F)F)cn3C)cc1)c(=O)n2C [Compound I-62, 7-methyl-9-(4-(1-methyl-4-(trifluoromethyl)-1H-imidazol-2-yl)benzyl)-2-(2-methylpyridin-3-yl)-7,9-dihydro-8H-purin-8-one] was run?
The pIC50 was 5.70 to 6.70.

With CC(C)c1ccccc1-c1ncc2c(n1)n(Cc1ccc(-c3nc(C(F)(F)F)cn3C)cc1)c(=O)n2C [Compound I-63, 2-(2-isopropylphenyl)-7-methyl-9-(4-(1-methyl-4-(trifluoromethyl)-1H-imidazol-2-yl)benzyl)-7,9-dihydro-8H-purin-8-one] as the compound, how does the pIC50 read?
Its pIC50 is greater than 7.30.

Cn1cc(C(F)(F)F)nc1-c1ccc(Cn2c(=O)[nH]c3cnc(-c4cccnc4C(F)F)nc32)cc1 [Compound I-64, 2-(2-(difluoromethyl)pyridin-3-yl)-9-(4-(1-methyl-4-(trifluoromethyl)-1H-imidazol-2-yl)benzyl)-7,9-dihydro-8H-purin-8-one] was tested. Which pIC50 did it give?
The pIC50 was 6.70 to 7.30.

With CC(C)c1c(F)cccc1-c1ncc2c(n1)n(Cc1ccc(-c3nc(C(F)(F)F)cn3C)cc1)c(=O)n2C [Compound I-65, 2-(3-fluoro-2-isopropylphenyl)-7-methyl-9-(4-(1-methyl-4-(trifluoromethyl)-1H-imidazol-2-yl)benzyl)-7,9-dihydro-8H-purin-8-one] as the compound, how does the pIC50 read?
Its pIC50 is greater than 7.30.

With Cc1nc(F)ccc1-c1ncc2c(n1)n(Cc1ccc(-c3nc(C(F)(F)F)cn3C)cc1)c(=O)n2C [Compound I-66, 2-(6-fluoro-2-methylpyridin-3-yl)-7-methyl-9-(4-(1-methyl-4-(trifluoromethyl)-1H-imidazol-2-yl)benzyl)-7,9-dihydro-8H-purin-8-one] as the compound, how does the pIC50 read?
The pIC50 was 5.70 to 6.70.

How did the pIC50 turn out when CC(C)c1ncc(F)cc1-c1ncc2[nH]c(=O)n(Cc3ccc(-c4nc(C(F)(F)F)cn4C)cc3)c2n1 [Compound I-67, 2-(5-fluoro-2-isopropylpyridin-3-yl)-9-(4-(1-methyl-4-(trifluoromethyl)-1H-imidazol-2-yl)benzyl)-7,9-dihydro-8H-purin-8-one] was run?
Its pIC50 is greater than 7.30.

Cc1cc(N2CCC2)nn1-c1ccc(Cn2c(=O)[nH]c3cnc(-c4cccnc4C(C)C)nc32)cc1 [Compound I-68, 9-(4-(3-(azetidin-1-yl)-5-methyl-1H-pyrazol-1-yl)benzyl)-2-(2-isopropylpyridin-3-yl)-7,9-dihydro-8H-purin-8-one] was tested. Which pIC50 did it give?
The pIC50 was 6.70 to 7.30.
